One assay has as its system iPSC-derived astrocytes. In words: Calcium transients in iPSC-derived astrocytes in response to stimuli. In kind it is cell-based, human. To be noted: DMSO as control treatment, FIG. 15.
For assay [1] the following is noted: as described in Sidrauski et al.; cited from earlier work.

For the molecule `Nc1ncnc2c1ncn2[C@@H]1O[C@H](COP(=O)(O)OP(=O)(O)OP(=O)(O)O)[C@@H](O)[C@H]1O` [ATP], the intracellular calcium levels result with iPSC-derived astrocytes was “increase of intracellular calcium levels”.

In the case of `[Cl-].[K+]` [KCL], the intracellular calcium levels entry with iPSC-derived astrocytes is “increase of intracellular calcium levels”.

On to `N[C@@H](CCC(=O)O)C(=O)O` [glutamate], for which the intracellular calcium levels entry in the assay with iPSC-derived astrocytes is reported as “increase of intracellular calcium levels”.

As a reminder, the IC50 is the concentration needed to halve the response being measured. On to `O=C(COc1ccc(Cl)cc1)N[C@H]1CC[C@H](NC(=O)COc2ccc(Cl)cc2)CC1` [trans-ISRIB, N,N′-((1r,4r)-cyclohexane-1,4-diyl)bis(2-(4-chlorophenoxy)acetamide)], for which, in assay [1], the IC50 was 5 nM and the “potency of trans-ISRIB relative to cis-ISRIB” value is 100 fold.

(Values after US12729367B2, “Radial glia and astrocyte differentiation from human pluripotent stem cells” (The United States of America, as represented by the …, priority 2020, dated 2026).)
